Data published in ChEMBL document CHEMBL3045422, “Synthesis, characterization, and antimicrobial screening of some Mannich base sydnone derivatives” (2013).
≈ marks a conversion by molar mass, not a printed value.

How the values were obtained:
Format in all cases: functional
Candida albicans [1] = experiment: microbe, parasite or virus in culture
Pseudomonas aeruginosa [2] = experiment: microbe, parasite or virus in culture
Escherichia coli [3] = experiment: microbe, parasite or virus in culture
Staphylococcus aureus [4] = experiment: microbe, parasite or virus in culture
Candida albicans [5] = experiment: Antifungal activity against Candida albicans at 300 ug/ml; conditions: read-out: IZ
Pseudomonas aeruginosa [6] = experiment: microbe, parasite or virus in culture; conditions: read-out: IZ
Escherichia coli [7] = experiment: microbe, parasite or virus in culture; conditions: read-out: IZ
Bacillus subtilis [8] = experiment: microbe, parasite or virus in culture; conditions: read-out: IZ
Staphylococcus aureus [9] = experiment: microbe, parasite or virus in culture; conditions: read-out: IZ
Bacillus subtilis [10] = experiment: microbe, parasite or virus in culture

| Compound | MIC (Candida albicans [1]) | MIC (Pseudomonas aeruginosa [2]) | MIC (Escherichia coli [3]) | MIC (Staphylococcus aureus [4]) | zone of inhibition at 300 µg/mL (Candida albicans [5]) | zone of inhibition at 300 µg/mL (Pseudomonas aeruginosa [6]) | zone of inhibition at 300 µg/mL (Escherichia coli [7]) | zone of inhibition at 300 µg/mL (Bacillus subtilis [8]) | zone of inhibition at 300 µg/mL (Staphylococcus aureus [9]) | MIC (Bacillus subtilis [10]) |
| --- | --- | --- | --- | --- | --- | --- | --- | --- | --- | --- |
| COc1ccc(-[n+]2noc([O-])c2Cn2c(-c3ccc(OC)c([N+](=O)[O-])c3)nc3ccccc32)cc1 | 200 µg/mL (≈ 422 µM) | 200 µg/mL (≈ 422 µM) | 200 µg/mL (≈ 422 µM) | 500 µg/mL (≈ 1060 µM) | 16 mm | 16 mm | 14 mm | 10 mm | 10 mm | 500 µg/mL (≈ 1060 µM) |
| COc1ccc(-[n+]2noc([O-])c2CNc2ccc(Cl)cc2)cc1 | 80 µg/mL (≈ 241 µM) | 300 µg/mL (≈ 904 µM) | 300 µg/mL (≈ 904 µM) | 200 µg/mL (≈ 603 µM) | 18 mm | 13 mm | 13 mm | 13 mm | 12 mm | 200 µg/mL (≈ 603 µM) |
| COc1ccc(NCc2c([O-])on[n+]2-c2ccc(OC)cc2)cc1 | 200 µg/mL (≈ 611 µM) | 100 µg/mL (≈ 305 µM) | 200 µg/mL (≈ 611 µM) | 80 µg/mL (≈ 244 µM) | 20 mm | 14 mm | 12 mm | 18 mm | 16 mm | 100 µg/mL (≈ 305 µM) |
| CC1(C)S[C@@H]2[C@H](NC(=O)[C@H](N)c3ccccc3)C(=O)N2[C@H]1C(=O)O [AMPICILLIN] |  | 100 µg/mL (≈ 286 µM) | 100 µg/mL (≈ 286 µM) | 250 µg/mL (≈ 715 µM) |  | 29 mm | 31 mm | 26 mm | 30 mm | 100 µg/mL (≈ 286 µM) |
| COc1ccc(-[n+]2noc([O-])c2Cn2c(-c3ccc(Cl)cc3Cl)nc3ccccc32)cc1 | 200 µg/mL (≈ 428 µM) | 300 µg/mL (≈ 642 µM) | 300 µg/mL (≈ 642 µM) | 500 µg/mL (≈ 1070 µM) | 16 mm | 12 mm | 12 mm | 10 mm | 10 mm | 500 µg/mL (≈ 1070 µM) |
| COc1ccc(-[n+]2noc([O-])c2CNc2ccccc2[N+](=O)[O-])cc1 | 200 µg/mL (≈ 584 µM) | 200 µg/mL (≈ 584 µM) | 200 µg/mL (≈ 584 µM) | 300 µg/mL (≈ 876 µM) | 14 mm | 13 mm | 14 mm | 13 mm | 11 mm | 200 µg/mL (≈ 584 µM) |
| COc1ccc(-[n+]2noc([O-])c2CNc2ccc(F)cc2)cc1 | 100 µg/mL (≈ 317 µM) | 300 µg/mL (≈ 951 µM) | 100 µg/mL (≈ 317 µM) | 200 µg/mL (≈ 634 µM) | 17 mm | 11 mm | 17 mm | 16 mm | 14 mm | 200 µg/mL (≈ 634 µM) |
| CN[C@@H]1[C@H](O[C@H]2[C@H](O[C@H]3[C@H](O)[C@@H](O)[C@H](N=C(N)N)[C@@H](O)[C@@H]3N=C(N)N)O[C@@H](C)[C@]2(O)C=O)O[C@@H](CO)[C@H](O)[C@H]1O [STREPTOMYCIN] |  | 0.5 µg/mL (≈ 0.86 µM) | 1 µg/mL (≈ 1.72 µM) | 0.125 µg/mL (≈ 0.215 µM) |  | 34 mm | 28 mm | 40 mm | 40 mm | 0.25 µg/mL (≈ 0.43 µM) |
| O=C(O)c1cn(C2CC2)c2cc(N3CCNCC3)c(F)cc2c1=O [CIPROFLOXACIN] |  |  | 25 µg/mL (≈ 75.4 µM) | 50 µg/mL (≈ 151 µM) |  | 23 mm |  | 31 mm | 30 mm |  |
| OC(Cn1cncn1)(Cn1cncn1)c1ccc(F)cc1F [FLUCONAZOLE] | 100 µg/mL (≈ 327 µM) |  |  |  | 25 mm |  |  |  |  |  |
| CC1(C)S[C@@H]2[C@H](NC(=O)Cc3ccccc3)C(=O)N2[C@H]1C(=O)O [PENICILLIN G] |  | 0.25 µg/mL (≈ 0.748 µM) | 0.5 µg/mL (≈ 1.5 µM) | 0.125 µg/mL (≈ 0.374 µM) |  | 38 mm | 30 mm | 35 mm | 45 mm | 0.25 µg/mL (≈ 0.748 µM) |
